What is called IC50 is the point on the concentration scale where inhibition reaches its midpoint.

T1 sequence (Q9NZQ7 with tags, fused parts or gaps): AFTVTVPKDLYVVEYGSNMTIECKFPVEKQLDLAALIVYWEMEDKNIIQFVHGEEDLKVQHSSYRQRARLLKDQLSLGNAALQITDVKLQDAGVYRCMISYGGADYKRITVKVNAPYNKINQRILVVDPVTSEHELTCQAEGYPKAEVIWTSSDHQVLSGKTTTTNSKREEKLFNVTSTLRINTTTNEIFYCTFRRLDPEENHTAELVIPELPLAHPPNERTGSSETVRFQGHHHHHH

One experiment concerns the target T1, PD-1/PD-L1 interaction (PD-1-Ig / PD-L1-His) (Homo sapiens, UniProt Q9NZQ7).
T1 construct: hPDL1(18-239)-TVMV-His; TVMV protease site linker (C); made in house; host or cells: HEK293T
Kind of experiment: PD-1/PD-L1 Homogenous Time-Resolved Fluorescence (HTRF) binding assay. Conditions: IC50 range class; PD-L1-His 10 nM, PD-1-Ig 20 nM; read-out: Range or IC50. In short, it runs like this:
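Human PD-L1-His (10 nM final) was pre-incubated with inhibitor for 15 min, then PD-1-Ig (20 nM final) was added for a further 15 min in dPBS with 0.1% BSA and 0.05% Tween-20. Binding was detected by HTRF using Eu-cryptate anti-Ig (1 nM) and APC anti-His (20 nM).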
(In general: In TR-FRET formats the signal depends on donor and acceptor labels being close together.)
Turning to `Cc1c(OCCCN2CC[C@@H](O)C2)cccc1-c1cccc(OCc2cccc(N)c2)c1C` [Example 3033, (R)-1-(3-((3′-((3-aminobenzyl)oxy)-2,2′-dimethyl-[1,1′-biphenyl]-3-yl)oxy)propyl)pyrrolidin-3-ol], the IC50 lay in the range of 1000 to 10000 nM.

On to `Cc1c(OCCCN2CC[C@@H](O)C2)cccc1-c1cccc(OCCCN2CC[C@@H](F)C2)c1C` [Example 3035, (R)-1-(3-((3′-(3-((R)-3-fluoropyrrolidin-1-yl)propoxy)-2,2′-dimethyl-[1,1′-biphenyl]-3-yl)oxy)propyl)pyrrolidin-3-ol], for which the IC50 lay in the range of 0.04 to 20 nM.

Consider `Cc1cc(OCc2cccc(-c3cccc(COc4cc(C)c(CNC(C)(CO)CO)cc4C)c3C)c2C)c(C)cc1CNC(C)(CO)CO` [Example 5001, 2,2′-((((((2,2′-dimethyl-[1,1′-biphenyl]-3,3′-diyl)bis(methylene))bis(oxy))bis(2,5-dimethyl-4,1-phenylene))bis(methylene))bis(azanediyl))bis(2-methylpropane-1,3-diol)], for which the IC50 fell in the range of 0.04 to 20 nM. For the compound `Cc1cc(OCc2cccc(-c3cccc(COc4cc(C)c(CN5CCCC[C@H]5C(=O)O)cc4C)c3C)c2C)c(C)cc1CN1CCCC[C@H]1C(=O)O` [Example 5002, (2S,2′S)-1,1′-(((((2,2′-dimethyl-[1,1′-biphenyl]-3,3′-diyl)bis(methylene))bis(oxy))bis(2,5-dimethyl-4,1-phenylene))bis(methylene))bis(piperidine-2-carboxylic acid)], the IC50 was 20.1 to 90 nM. On the same count and under the same terms, under `Cc1c(COc2cc(OCc3cc(F)cc(F)c3)c(CNC(CO)CO)cc2Cl)cccc1-c1cccc(COc2cc(OCc3cc(F)cc(F)c3)c(CNC(CO)CO)cc2Cl)c1C` [Example 5003, 2,2′-((((((2,2′-dimethyl-[1,1′-biphenyl]-3,3′-diyl)bis(methylene))bis(oxy))bis(5-chloro-2-((3,5-difluorobenzyl)oxy)-4,1-phenylene))bis(methylene))bis(azanediyl))bis(propane-1,3-diol)] stands 90.1 to 1000 nM. Same read-out and setting: under `Cc1cc(OCc2cccc(-c3cccc(COc4cc(C)c(CNC(CO)CO)cc4C)c3C)c2C)c(C)cc1CNC(CO)CO` [Example 5004, 2,2′-((((((2,2′-dimethyl-[1,1′-biphenyl]-3,3′-diyl)bis(methylene))bis(oxy))bis(2,5-dimethyl-4,1-phenylene))bis(methylene))bis(azanediyl))bis(propane-1,3-diol)] stands 0.04 to 20 nM. As to `Cc1c(COc2cc(OCc3cc(F)cc(F)c3)c(CN(C)C(CO)CO)cc2Cl)cccc1-c1cccc(COc2cc(OCc3cc(F)cc(F)c3)c(CN(C)C(CO)CO)cc2Cl)c1C` [Example 5005, 2,2′-((((((2,2′-dimethyl-[1,1′-biphenyl]-3,3′-diyl)bis(methylene))bis(oxy))bis(5-chloro-2-((3,5-difluorobenzyl)oxy)-4,1-phenylene))bis(methylene))bis(methylazanediyl))bis(propane-1,3-diol)], the IC50 lay within 90.1 to 1000 nM. The same measure, in the same setting: the same measure for `Cc1c(COc2cc(OCc3cc(F)cc(F)c3)c(CN3CCCC[C@H]3C(=O)O)cc2Cl)cccc1-c1cccc(COc2cc(OCc3cc(F)cc(F)c3)c(CN3CCCC[C@H]3C(=O)O)cc2Cl)c1C` [Example 5006, (2S,2′S)-1,1′-(((((2,2′-dimethyl-[1,1′-biphenyl]-3,3′-diyl)bis(methylene))bis(oxy))bis(5-chloro-2-((3,5-difluorobenzyl)oxy)-4,1-phenylene))bis(methylene))bis(piperidine-2-carboxylic acid)]: 0.04 to 20 nM; for `Cc1c(COc2cc(OCc3cc(F)cc(F)c3)c(CNC(C)(CO)CO)cc2Cl)cccc1-c1cccc(COc2cc(OCc3cc(F)cc(F)c3)c(CNC(C)(CO)CO)cc2Cl)c1C` [Example 5007, 2,2′-((((((2,2′-dimethyl-[1,1′-biphenyl]-3,3′-diyl)bis(methylene))bis(oxy))bis(5-chloro-2-((3,5-difluorobenzyl)oxy)-4,1-phenylene))bis(methylene))bis(azanediyl))bis(2-methylpropane-1,3-diol)]: 0.04 to 20 nM. The same measure, in the same setting: under `Cc1c(COc2cc(OCc3cc(F)cc(F)c3)c(CN[C@@H](CO)C(=O)O)cc2Cl)cccc1-c1cccc(COc2cc(OCc3cc(F)cc(F)c3)c(CN[C@@H](CO)C(=O)O)cc2Cl)c1C` [Example 5008, (2S,2′S)-2,2′-((((((2,2′-dimethyl-[1,1′-biphenyl]-3,3′-diyl)bis(methylene))bis(oxy))bis(5-chloro-2-((3,5-difluorobenzyl)oxy)-4,1-phenylene))bis(methylene))bis(azanediyl))bis(3-hydroxypropanoic acid)] stands 20.1 to 90 nM. Regarding `Cc1c(COc2cc(OCc3cc(F)cc(F)c3)c(CN[C@@](C)(CO)C(=O)O)cc2Cl)cccc1-c1cccc(COc2cc(OCc3cc(F)cc(F)c3)c(CN[C@@](C)(CO)C(=O)O)cc2Cl)c1C` [Example 5009, (2S,2′S)-2,2′-((((((2,2′-dimethyl-[1,1′-biphenyl]-3,3′-diyl)bis(methylene))bis(oxy))bis(5-chloro-2-((3,5-difluorobenzyl)oxy)-4,1-phenylene))bis(methylene))bis(azanediyl))bis(3-hydroxy-2-methylpropanoic acid)], the half-inhibitory concentration (IC50) fell in the range of 0.04 to 20 nM. Turning to `Cc1c(COc2cc(OCc3cc(F)cc(F)c3)c(CN(C)C(C)(CO)CO)cc2Cl)cccc1-c1cccc(COc2cc(OCc3cc(F)cc(F)c3)c(CN(C)C(C)(CO)CO)cc2Cl)c1C` [Example 5012, 2,2′-((((((2,2′-dimethyl-[1,1′-biphenyl]-3,3′-diyl)bis(methylene))bis(oxy))bis(5-chloro-2-((3,5-difluorobenzyl)oxy)-4,1-phenylene))bis(methylene))bis(methylazanediyl))bis(2-methylpropane-1,3-diol)], the IC50 was in the range of 20.1 to 90 nM.

With `Cc1c(COc2cc(OCc3cc(F)cc(F)c3)c(CN(C)[C@@H](CO)C(=O)O)cc2Cl)cccc1-c1cccc(COc2cc(OCc3cc(F)cc(F)c3)c(CN(C)[C@@H](CO)C(=O)O)cc2Cl)c1C` [Example 5013, (2S,2′S)-2,2′-((((((2,2′-dimethyl-[1,1′-biphenyl]-3,3′-diyl)bis(methylene))bis(oxy))bis(5-chloro-2-((3,5-difluorobenzyl)oxy)-4,1-phenylene))bis(methylene))bis(methylazanediyl))bis(3-hydroxypropanoic acid)], the IC50 was 20.1 to 90 nM. For the compound `Cc1c(COc2cc(OCc3cc(F)cc(F)c3)c(CN(C)[C@@](C)(CO)C(=O)O)cc2Cl)cccc1-c1cccc(COc2cc(OCc3cc(F)cc(F)c3)c(CN(C)[C@@](C)(CO)C(=O)O)cc2Cl)c1C` [Example 5014, (2S,2′S)-2,2′-((((((2,2′-dimethyl-[1,1′-biphenyl]-3,3′-diyl)bis(methylene))bis(oxy))bis(5-chloro-2-((3,5-difluorobenzyl)oxy)-4,1-phenylene))bis(methylene))bis(methylazanediyl))bis(3-hydroxy-2-methylpropanoic acid)], the concentration for half-maximal inhibition (IC50) is 20.1 to 90 nM. For `Cc1c(COc2cc(OCc3cc(F)cc(F)c3)c(CN(C)[C@H](C(=O)O)C(C)C)cc2Cl)cccc1-c1cccc(COc2cc(OCc3cc(F)cc(F)c3)c(CN(C)[C@H](C(=O)O)C(C)C)cc2Cl)c1C` [Example 5015, (2S,2′S)-2,2′-((((((2,2′-dimethyl-[1,1′-biphenyl]-3,3′-diyl)bis(methylene))bis(oxy))bis(5-chloro-2-((3,5-difluorobenzyl)oxy)-4,1-phenylene))bis(methylene))bis(methylazanediyl))bis(3-methylbutanoic acid)], the IC50 was 20.1 to 90 nM. Take `Cc1c(COc2cc(OCc3cc(F)cc(F)c3)c(CN(C)[C@@H](CC(C)C)C(=O)O)cc2Cl)cccc1-c1cccc(COc2cc(OCc3cc(F)cc(F)c3)c(CN(C)[C@@H](CC(C)C)C(=O)O)cc2Cl)c1C` [Example 5017, (2S,2′S)-2,2′-((((((2,2′-dimethyl-[1,1′-biphenyl]-3,3′-diyl)bis(methylene))bis(oxy))bis(5-chloro-2-((3,5-difluorobenzyl)oxy)-4,1-phenylene))bis(methylene))bis(methylazanediyl))bis(4-methylpentanoic acid)]: the IC50 lay in the range of 0.04 to 20 nM. The same measure, in the same setting: the same measure for `Cc1c(COc2cc(OCc3ccc(-n4cccn4)nc3)c(CN[C@H](C(=O)O)[C@@H](C)O)cc2Cl)cccc1-c1cccc(COc2cc(OCc3ccc(-n4cccn4)nc3)c(CN[C@H](C(=O)O)[C@@H](C)O)cc2Cl)c1C` [Example 5018, (2S,2′S,3R,3′R)-2,2′-((((((2,2′-dimethyl-[1,1′-biphenyl]-3,3′-diyl)bis(methylene))bis(oxy))bis(2-((6-(1H-pyrazol-1-yl)pyridin-3-yl)methoxy)-5-chloro-4,1-phenylene))bis(methylene))bis(azanediyl))bis(3-hydroxybutanoic acid)]: 0.04 to 20 nM; for `Cc1c(COc2cc(OCc3ccc(-n4cccn4)nc3)c(CNC(CO)CO)cc2Cl)cccc1-c1cccc(COc2cc(OCc3ccc(-n4cccn4)nc3)c(CNC(CO)CO)cc2Cl)c1C` [Example 5019, 2,2′-((((((2,2′-dimethyl-[1,1′-biphenyl]-3,3′-diyl)bis(methylene))bis(oxy))bis(2-((6-(1H-pyrazol-1-yl)pyridin-3-yl)methoxy)-5-chloro-4,1-phenylene))bis(methylene))bis(azanediyl))bis(propane-1,3-diol)]: 20.1 to 90 nM.

The experiment is the same for the next values; noted with them: numeric IC50; PD-L1-His 10 nM, PD-1-Ig 20 nM; read-out: Range or IC50.
For `CCC[C@@H](C(=O)O)N(C)Cc1cc(Cl)c(OCc2cccc(-c3cccc(COc4cc(OCc5cc(F)cc(F)c5)c(CN(C)[C@@H](CCC)C(=O)O)cc4Cl)c3C)c2C)cc1OCc1cc(F)cc(F)c1` [Example 5016, (2S,2′S)-2,2′-((((((2,2′-dimethyl-[1,1′-biphenyl]-3,3′-diyl)bis(methylene))bis(oxy))bis(5-chloro-2-((3,5-difluorobenzyl)oxy)-4,1-phenylene))bis(methylene))bis(methylazanediyl))dipentanoic acid], the IC50 came to 31 nM.

Values taken from patent US10144706B2 (BRISTOL-MYERS SQUIBB COMPANY, priority 2016, dated 2018).
